Earlier results, collected in US20120209535A1, “METHOD FOR GENERATING BIOMARKER REFERENCE PATTERNS” (BASF Plant Science Company GmbH, priority 2009, published 2012).
Read-outs that look alike come from different tables or passages of the source.

Assays:
[1] = known effect
liver = settings: known effect
bladder = settings: known effect

CCCCOC(=O)c1ccccc1C(=O)OCCCC [dibutyl phthalate]
peroxisome proliferation effect (peroxisome proliferation): have the abovementioned effect

CC(=O)Nc1cccc2c1-c1ccccc1C2 [4-acetylaminofluorene]
immunosuppressant [1]: immunosuppressant
lipid accumulation in the liver (liver): lipid accumulation in the liver
liver carcinogen (liver): no liver carcinogen
liver enzyme inducer (liver): weak liver enzyme inducer

CC(=O)Nc1ccc2c(c1)Cc1ccccc1-2 [2-Acetylaminofluorene]
immunosuppressant [1]: immunosuppressant
liver carcinogen (liver): liver carcinogen
liver enzyme inducer (liver): potent liver enzyme inducer
bladder carcinogen (bladder): bladder carcinogen

Cc1cc(Cl)ccc1O[C@@H](C)C(=O)O [mecoprop-p]
peroxisome proliferation effect (peroxisome proliferation; expert knowledge and/or literature information): have the abovementioned effect
